The source of these data is patent publication US20250064941A1, “SIGLEC LIGANDS, CONJUGATES, AND METHODS OF USE THEREOF” (Osprey Biopharmaceuticals, Inc., priority 2023, published 2025).

Molecules are shown by their SMILES.

Assay [1] deals with T1, mouse Siglec-2-Fc-Avi (CD22) (Mus musculus, UniProt P35329).
T1 construct: made in house
T1 sequence (P35329 22-708 limits assumed): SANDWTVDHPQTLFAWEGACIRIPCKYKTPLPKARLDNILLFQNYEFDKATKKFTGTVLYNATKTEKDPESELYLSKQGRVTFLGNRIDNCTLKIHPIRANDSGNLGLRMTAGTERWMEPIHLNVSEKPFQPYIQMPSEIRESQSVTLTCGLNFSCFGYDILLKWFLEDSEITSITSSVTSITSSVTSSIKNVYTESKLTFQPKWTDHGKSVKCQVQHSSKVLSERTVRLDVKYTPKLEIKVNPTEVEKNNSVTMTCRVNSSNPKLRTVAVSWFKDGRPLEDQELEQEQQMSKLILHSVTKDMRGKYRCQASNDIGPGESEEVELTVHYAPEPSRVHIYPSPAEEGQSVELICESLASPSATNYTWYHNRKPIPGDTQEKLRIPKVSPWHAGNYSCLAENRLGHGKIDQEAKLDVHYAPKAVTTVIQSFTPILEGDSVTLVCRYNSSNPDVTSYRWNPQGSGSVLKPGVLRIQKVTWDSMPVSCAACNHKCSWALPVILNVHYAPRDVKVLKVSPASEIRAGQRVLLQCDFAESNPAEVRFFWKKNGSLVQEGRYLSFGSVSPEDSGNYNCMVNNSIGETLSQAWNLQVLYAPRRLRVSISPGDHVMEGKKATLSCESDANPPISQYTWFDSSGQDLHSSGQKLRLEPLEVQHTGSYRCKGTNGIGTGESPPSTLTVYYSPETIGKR
The assay can be described thus: SPR binding affinity to mouse CD22. The conditions noted are these: steady-state analysis. The gist of the method:
(§1)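 Steady-state fits gave the affinities. Before capture on a streptavidin surface, biotinylated CD22 had native sialic acids stripped (SialoExo, 4 hours, 37° C.). Running buffer: 10 mM HEPES pH 7.5, 150 mM NaCl, 0.05% Tween-20, 1% DMSO, with DMSO solvent correction.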

Assay [2] concerns the target T2, human Siglec-2/CD22 protein (Homo sapiens, UniProt P20273).
T2 construct: purchased Acro Biosystems SI2-H82E3
T2 sequence (P20273 20-847): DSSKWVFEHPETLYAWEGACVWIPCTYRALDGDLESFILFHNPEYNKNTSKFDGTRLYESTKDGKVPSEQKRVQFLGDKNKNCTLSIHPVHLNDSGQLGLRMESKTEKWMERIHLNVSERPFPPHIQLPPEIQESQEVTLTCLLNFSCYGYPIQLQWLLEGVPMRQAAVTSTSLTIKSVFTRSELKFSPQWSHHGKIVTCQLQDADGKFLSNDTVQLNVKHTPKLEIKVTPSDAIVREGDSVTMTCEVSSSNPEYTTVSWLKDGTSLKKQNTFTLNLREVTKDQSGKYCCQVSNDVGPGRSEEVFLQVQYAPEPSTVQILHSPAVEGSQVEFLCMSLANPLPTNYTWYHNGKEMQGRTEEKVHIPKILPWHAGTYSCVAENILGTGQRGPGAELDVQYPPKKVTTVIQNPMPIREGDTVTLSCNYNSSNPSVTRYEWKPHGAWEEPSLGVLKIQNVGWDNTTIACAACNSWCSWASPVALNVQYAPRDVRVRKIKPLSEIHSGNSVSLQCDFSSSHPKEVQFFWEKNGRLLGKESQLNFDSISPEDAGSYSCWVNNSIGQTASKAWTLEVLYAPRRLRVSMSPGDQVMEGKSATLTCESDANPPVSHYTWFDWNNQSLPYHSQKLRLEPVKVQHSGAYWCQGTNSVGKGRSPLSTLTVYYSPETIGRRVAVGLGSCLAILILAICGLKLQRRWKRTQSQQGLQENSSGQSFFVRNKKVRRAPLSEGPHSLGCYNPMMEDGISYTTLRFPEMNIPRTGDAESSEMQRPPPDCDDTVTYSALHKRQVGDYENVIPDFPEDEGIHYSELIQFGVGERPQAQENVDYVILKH
The assay can be described thus: SPR binding affinity to human CD22. The conditions noted are these: steady-state analysis. The gist of the method: as §1
(In SPR one partner is held on a chip, and binding of the other changes the refractive index at the surface.)

For assay [3], the target named is cynomolgus Siglec-2/CD22 (Macaca fascicularis, UniProt A0A2K5WCZ6). The assay can be described thus: biochemical. The conditions noted are these: SPR, steady-state analysis; read-out: Affinity cyno CD22. The class given is binding. The protocol: Prior to immobilization, CD22 proteins were treated with SialoExo (Genovis, Cat #G1-SM1-020) for 4 hours at 37° C. to remove native sialic acid residues.
Surface preparation for cyno CD22 protein consisted of amine coupling to Cytiva CM5 chip (Cytiva, Cat #BR100530) using the Cytiva amine coupling kit Type 2 (Cytiva, Cat #BR100633). Following the standard amine coupling protocols, EDC and NHS from the kit were mixed 1:1 and injected over flow cells 1 and 2. […] Any active carboxy groups were then capped with 1M Ethanolamine, pH 8.5 for 420s on flow cells 1 and 2.
Binding experiments of Siglec-ligand conjugated proteins or Siglec ligand compounds were performed on the surfaces prepared above in 10 mM HEPES, 150 mM NaCl, 0.05% Tween-20, pH 7.5, 1% DMSO as the running buffer. […] The compounds were then allowed to dissociate from the surface for 120 seconds. […] Solvent correction was performed using 0.5, 1, 1.5, and 2% DMSO spike into running buffer without DMSO. […] Data was analyzed using steady-state analysis in Biacore Insight Evaluation Software, version 3.0 for Siglec ligand compounds.

Chain of cynomolgus Siglec-2/CD22 (A0A2K5WCZ6 entry or part of it): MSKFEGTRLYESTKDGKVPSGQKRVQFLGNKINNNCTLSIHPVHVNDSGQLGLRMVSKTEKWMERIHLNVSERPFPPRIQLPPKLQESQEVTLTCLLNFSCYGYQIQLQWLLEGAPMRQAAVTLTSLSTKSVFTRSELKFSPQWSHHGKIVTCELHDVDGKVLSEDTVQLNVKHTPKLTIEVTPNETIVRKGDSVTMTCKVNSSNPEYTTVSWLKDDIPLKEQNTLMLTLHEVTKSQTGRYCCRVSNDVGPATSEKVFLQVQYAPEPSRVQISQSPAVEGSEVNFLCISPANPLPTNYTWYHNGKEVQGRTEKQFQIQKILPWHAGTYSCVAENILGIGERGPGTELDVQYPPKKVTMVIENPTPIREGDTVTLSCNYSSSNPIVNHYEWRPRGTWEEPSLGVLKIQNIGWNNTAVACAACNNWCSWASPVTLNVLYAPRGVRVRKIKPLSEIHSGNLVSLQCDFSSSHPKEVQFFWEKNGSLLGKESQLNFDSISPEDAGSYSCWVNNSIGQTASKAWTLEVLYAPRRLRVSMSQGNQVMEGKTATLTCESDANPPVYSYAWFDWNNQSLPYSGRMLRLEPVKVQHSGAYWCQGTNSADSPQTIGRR

As for `C#CCNc1c(NCCCCCCO[C@]2(C(=O)O)C[C@H](O)[C@@H](NC(=O)CO)[C@H]([C@H](O)[C@H](O)CNC(=O)Cc3ccc(-c4ccccc4)cc3)O2)c(=O)c1=O` [Compound 221, (2R,4S,5R,6R)-6-((1R,2R)-3-(2-([1,1′-biphenyl]-4-yl)acetamido)-1,2-dihydroxypropyl)-2-((6-((3,4-dioxo-2-(prop-2-yn-1-ylamino)cyclobut-1-en-1-yl)amino)hexyl)oxy)-4-hydroxy-5-(2-hydroxyacetamido)tetrahydro-2H-pyran-2-carboxylic acid], the Kd in assay [1], in assay [2] and in assay [3] was < 1 µM throughout.
Take `O=C(Cc1ccc(Cl)cc1)NC[C@@H](O)[C@@H](O)[C@@H]1O[C@@](OCCCCCCNC(=O)c2ccccc2)(C(=O)O)C[C@H](O)[C@H]1NC(=O)CO` [Compound 108, (2R,4S,5R,6R)-2-((6-benzamidohexyl)oxy)-6-((1R,2R)-3-(2-(4-chlorophenyl)acetamido)-1,2-dihydroxypropyl)-4-hydroxy-5-(2-hydroxyacetamido)tetrahydro-2H-pyran-2-carboxylic acid]: the Kd in assay [1], in assay [2] and in assay [3] was < 1 µM in each case.
For the compound `C#CCOCCOCCO[C@]1(C(=O)O)C[C@H](O)[C@@H](NC(=O)CO)[C@H]([C@H](O)[C@H](O)CNC(=O)c2ccc(Cl)cc2)O1` [Compound 30, (2R,4S,5R,6R)-6-((1R,2R)-3-(4-chlorobenzamido)-1,2-dihydroxypropyl)-4-hydroxy-5-(2-hydroxyacetamido)-2-(2-(2-(prop-2-yn-1-yloxy)ethoxy)ethoxy)tetrahydro-2H-pyran-2-carboxylic acid], the Kd is > 10 µM in assay [1], 1 to 10 µM in assay [2] and 1 to 10 µM in assay [3].
As to `C#CCOCCCCCCO[C@]1(C(=O)O)C[C@H](O)[C@@H](NC(=O)CO)[C@H]([C@H](O)[C@H](O)CNC(=O)Cc2ccc(C#N)cc2)O1` [Compound 162, (2R,4S,5R,6R)-6-((1R,2R)-3-(2-(4-cyanophenyl)acetamido)-1,2-dihydroxypropyl)-4-hydroxy-5-(2-hydroxyacetamido)-2-((6-(prop-2-yn-1-yloxy)hexyl)oxy)tetrahydro-2H-pyran-2-carboxylic acid], the Kd is 1 to 10 µM in assay [1], 1 to 10 µM in assay [2] and < 1 µM in assay [3].
As for `C#CCCOc1ccc(CO[C@]2(C(=O)O)C[C@H](O)[C@@H](NC(=O)CO)[C@H]([C@H](O)[C@H](O)CNC(=O)C(OC)(c3ccccc3)C(F)(F)F)O2)cc1` (stereo partly drawn) [Compound 171, (2R,4S,5R,6R)-2-((4-(but-3-yn-1-yloxy)benzyl)oxy)-6-((1R,2R)-1,2-dihydroxy-3-(3,3,3-trifluoro-2-methoxy-2-phenylpropanamido)propyl)-4-hydroxy-5-(2-hydroxyacetamido)tetrahydro-2H-pyran-2-carboxylic acid], the Kd in assay [1], in assay [2] and in assay [3] was 1 to 10 µM throughout.
As for `C#CCOCCOCCO[C@]1(C(=O)O)C[C@H](O)[C@@H](NC(=O)C(C)(C)O)[C@H]([C@H](O)[C@H](O)CNC(=O)Cc2ccc(-c3ccc(O)cc3)cc2)O1` [Compound 71, (2R,4S,5R,6R)-6-((1R,2R)-1,2-dihydroxy-3-(2-(4′-hydroxy-[1,1′-biphenyl]-4-yl)acetamido)propyl)-4-hydroxy-5-(2-hydroxy-2-methylpropanamido)-2-(2-(2-(prop-2-yn-1-yloxy)ethoxy)ethoxy)tetrahydro-2H-pyran-2-carboxylic acid], the Kd in assay [1] is > 10 µM; in assay [2] it was 1 to 10 µM; in assay [3], 1 to 10 µM.
In the case of `C#CCOCCOCCO[C@]1(C(=O)O)C[C@H](O)[C@@H](NC(=O)CO)[C@H]([C@H](O)[C@H](O)CNC(=O)CCCCCCCCCCCCCCC)O1` [Compound 13, (2R,4S,5R,6R)-6-((1R,2R)-1,2-dihydroxy-3-palmitamidopropyl)-4-hydroxy-5-(2-hydroxyacetamido)-2-(2-(2-(prop-2-yn-1-yloxy)ethoxy)ethoxy)tetrahydro-2H-pyran-2-carboxylic acid], the Kd in assay [1], in assay [2] and in assay [3] was > 10 µM each time.
`C#CCOc1ccc(CO[C@]2(C(=O)O)C[C@H](O)[C@@H](NC(=O)CO)[C@H]([C@H](O)[C@H](O)CNC(=O)Cc3ccccc3O)O2)cc1` [Compound 145, (2R,4S,5R,6R)-6-((1R,2R)-1,2-dihydroxy-3-(2-(2-hydroxyphenyl)acetamido)propyl)-4-hydroxy-5-(2-hydroxyacetamido)-2-((4-(prop-2-yn-1-yloxy)benzyl)oxy)tetrahydro-2H-pyran-2-carboxylic acid]: the Kd in assay [1], in assay [2] and in assay [3] was 1 to 10 µM in each case.
For `C#CCOCc1cn([C@]2(C(=O)O)C[C@H](O)[C@@H](NC(=O)CO)[C@H]([C@H](O)[C@H](O)CNC(=O)Cc3ccc(-c4ccc(O)cc4)cc3)O2)nn1` [Compound 62, (2R,4S,5R,6R)-6-((1R,2R)-1,2-dihydroxy-3-(2-(4′-hydroxy-[1,1′-biphenyl]-4-yl)acetamido)propyl)-4-hydroxy-5-(2-hydroxyacetamido)-2-(4-((prop-2-yn-1-yloxy)methyl)-1H-1,2,3-triazol-1-yl)tetrahydro-2H-pyran-2-carboxylic acid], the Kd in assay [1], in assay [2] and in assay [3] was 1 to 10 µM in each case.
`C#CCN(CC(=O)O)C(=O)CCCO[C@]1(C(=O)O)C[C@H](O)[C@@H](NC(=O)CO)[C@H]([C@H](O)[C@H](O)CNC(=O)Cc2ccc(Cl)cc2)O1` [Compound 101, (2R,4S,5R,6R)-2-(4-((carboxymethyl)(prop-2-yn-1-yl)amino)-4-oxobutoxy)-6-((1R,2R)-3-(2-(4-chlorophenyl)acetamido)-1,2-dihydroxypropyl)-4-hydroxy-5-(2-hydroxyacetamido)tetrahydro-2H-pyran-2-carboxylic acid]: the Kd in assay [1], in assay [2] and in assay [3] was 1 to 10 µM throughout.
Turning to `C#CCCOc1ccc(CO[C@]2(C(=O)O)C[C@H](O)[C@@H](NC(=O)CO)[C@H]([C@H](O)[C@H](O)CNC(=O)Cc3ccc(O)c(Cl)c3)O2)cc1` [Compound 136, (2R,4S,5R,6R)-2-((4-(but-3-yn-1-yloxy)benzyl)oxy)-6-((1R,2R)-3-(2-(3-chloro-4-hydroxyphenyl)acetamido)-1,2-dihydroxypropyl)-4-hydroxy-5-(2-hydroxyacetamido)tetrahydro-2H-pyran-2-carboxylic acid], the values for the Kd in assay [1], in assay [2] and in assay [3] were 1 to 10 µM, < 1 µM and < 1 µM, respectively.
